{"source": "patent US12043599B2", "about": "“Herbicidal compounds” (SYNGENTA PARTICIPATIONS AG, priority 2018, dated 2024)", "format_in_all_cases": "in vivo", "conditions_in_all_cases": "250 g/h, evaluated after 13 days", "key": {"[1]": {"system": "Alopecurus myosuroides (ALOMY)", "assay": "Pre-emergence herbicidal glasshouse test, percentage damage", "procedure,_shortened": "(§1)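 Potted plants in standard soil; pre-emergence spray after 1 d of cultivation, post-emergence after 8 d. Dose 250 g/h from an acetone/water (50:50), 0.5% Tween 20 formulation. % damage at 13 d, scored 1–5.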"}, "Avena fatua (AVEFA) [2]": {"system": "Avena fatua (AVEFA)", "assay": "Pre-emergence herbicidal glasshouse test, percentage damage", "procedure,_shortened": "as §1"}, "[3]": {"system": "Echinochloa crus-galli (ECHCG)", "assay": "Pre-emergence herbicidal glasshouse test, percentage damage", "procedure,_shortened": "as §1"}, "Lolium perenne (LOLPE) [4]": {"system": "Lolium perenne (LOLPE)", "assay": "Pre-emergence herbicidal glasshouse test, percentage damage", "procedure,_shortened": "as §1"}, "Setaria faberi (SETFA) [5]": {"system": "Setaria faberi (SETFA)", "assay": "Pre-emergence herbicidal glasshouse test, percentage damage", "procedure,_shortened": "as §1"}, "Setaria faberi (SETFA) [6]": {"system": "Setaria faberi (SETFA)", "assay": "Post-emergence herbicidal glasshouse test, percentage damage", "procedure,_shortened": "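Wheat, barley and Setaria faberi were sprayed post-emergence after 8 days' growth (24/16 °C, 14 h light, 65% humidity) with compound in acetone/water (50:50) containing 0.5% Tween 20, at the indicated rates. On wheat, compounds were also applied with cloquintocet-mexyl at 50 g/ha. Damage was scored after 13 days on a five-point scale (5=80-100% to 1=0-19%).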"}, "[7]": {"system": "Alopecurus myosuroides (ALOMY)", "assay": "Post-emergence herbicidal glasshouse test, percentage damage", "procedure,_shortened": "as §1"}, "Avena fatua (AVEFA) [8]": {"system": "Avena fatua (AVEFA)", "assay": "Post-emergence herbicidal glasshouse test, percentage damage", "procedure,_shortened": "as §1"}, "[9]": {"system": "Echinochloa crus-galli (ECHCG)", "assay": "Post-emergence herbicidal glasshouse test, percentage damage", "procedure,_shortened": "as §1"}, "Lolium perenne (LOLPE) [10]": {"system": "Lolium perenne (LOLPE)", "assay": "Post-emergence herbicidal glasshouse test, percentage damage", "procedure,_shortened": "as §1"}}, "data": [{"smiles": "CC#Cc1cc(C)c(C2=C(OC(=O)OC)CC3(CCN(C(=O)NC4CC4)CC3)CC2=O)c(C)c1", "note": "[Compound P15]", "values": [{"measurement": "ALOMY PRE percentage damage (five point scale)", "setting": "[1]", "value": "5 (5=80-100%)"}, {"measurement": "AVEFA PRE percentage damage (five point scale)", "setting": "Avena fatua (AVEFA) [2]", "value": "5 (5=80-100%)"}, {"measurement": "ECHCG PRE percentage damage (five point scale)", "setting": "[3]", "value": "5 (5=80-100%)"}, {"measurement": "LOLPE PRE percentage damage (five point scale)", "setting": "Lolium perenne (LOLPE) [4]", "value": "5 (5=80-100%)"}, {"measurement": "SETFA PRE percentage damage (five point scale)", "setting": "Setaria faberi (SETFA) [5]", "value": "5 (5=80-100%)"}, {"measurement": "SETFA POST percentage damage (five point scale)", "setting": "Setaria faberi (SETFA) [6]", "value": "5 (5=80-100%)"}, {"measurement": "ALOMY POST percentage damage (five point scale)", "setting": "[7]", "value": "5 (5=80-100%)"}, {"measurement": "AVEFA POST percentage damage (five point scale)", "setting": "Avena fatua (AVEFA) [8]", "value": "5 (5=80-100%)"}, {"measurement": "ECHCG POST percentage damage (five point scale)", "setting": "[9]", "value": "5 (5=80-100%)"}, {"measurement": "LOLPE POST percentage damage (five point scale)", "setting": "Lolium perenne (LOLPE) [10]", "value": "5 (5=80-100%)"}]}, {"smiles": "CC#Cc1cc(C)c(C2=C(OS(=O)(=O)c3ccccn3)CC3(CCN(S(=O)(=O)c4ccccn4)CC3)CC2=O)c(C)c1", "note": "[Compound P17]", "values": [{"measurement": "ALOMY PRE percentage damage (five point scale)", "setting": "[1]", "value": "5 (5=80-100%)"}, {"measurement": "AVEFA PRE percentage damage (five point scale)", "setting": "Avena fatua (AVEFA) [2]", "value": "3 (3=40-59%)"}, {"measurement": "ECHCG PRE percentage damage (five point scale)", "setting": "[3]", "value": "5 (5=80-100%)"}, {"measurement": "LOLPE PRE percentage damage (five point scale)", "setting": "Lolium perenne (LOLPE) [4]", "value": "4 (4=60-79%)"}, {"measurement": "SETFA PRE percentage damage (five point scale)", "setting": "Setaria faberi (SETFA) [5]", "value": "4 (4=60-79%)"}, {"measurement": "SETFA POST percentage damage (five point scale)", "setting": "Setaria faberi (SETFA) [6]", "value": "5 (5=80-100%)"}, {"measurement": "ALOMY POST percentage damage (five point scale)", "setting": "[7]", "value": "5 (5=80-100%)"}, {"measurement": "AVEFA POST percentage damage (five point scale)", "setting": "Avena fatua (AVEFA) [8]", "value": "5 (5=80-100%)"}, {"measurement": "ECHCG POST percentage damage (five point scale)", "setting": "[9]", "value": "5 (5=80-100%)"}, {"measurement": "LOLPE POST percentage damage (five point scale)", "setting": "Lolium perenne (LOLPE) [10]", "value": "5 (5=80-100%)"}]}, {"smiles": "CC#Cc1cc(C)c(C2=C(OC(=O)COC)CC3(CCN(C(=O)COC)CC3)CC2=O)c(C)c1", "note": "[Compound P18]", "values": [{"measurement": "ALOMY PRE percentage damage (five point scale)", "setting": "[1]", "value": "5 (5=80-100%)"}, {"measurement": "AVEFA PRE percentage damage (five point scale)", "setting": "Avena fatua (AVEFA) [2]", "value": "5 (5=80-100%)"}, {"measurement": "ECHCG PRE percentage damage (five point scale)", "setting": "[3]", "value": "5 (5=80-100%)"}, {"measurement": "LOLPE PRE percentage damage (five point scale)", "setting": "Lolium perenne (LOLPE) [4]", "value": "5 (5=80-100%)"}, {"measurement": "SETFA PRE percentage damage (five point scale)", "setting": "Setaria faberi (SETFA) [5]", "value": "5 (5=80-100%)"}, {"measurement": "SETFA POST percentage damage (five point scale)", "setting": "Setaria faberi (SETFA) [6]", "value": "5 (5=80-100%)"}, {"measurement": "ALOMY POST percentage damage (five point scale)", "setting": "[7]", "value": "5 (5=80-100%)"}, {"measurement": "AVEFA POST percentage damage (five point scale)", "setting": "Avena fatua (AVEFA) [8]", "value": "5 (5=80-100%)"}, {"measurement": "ECHCG POST percentage damage (five point scale)", "setting": "[9]", "value": "5 (5=80-100%)"}, {"measurement": "LOLPE POST percentage damage (five point scale)", "setting": "Lolium perenne (LOLPE) [10]", "value": "5 (5=80-100%)"}]}, {"smiles": "CC#Cc1cc(C)c(C2=C(OC(=O)OC)CC3(CCN(C(=O)COC)CC3)CC2=O)c(C)c1", "note": "[Compound P19]", "values": [{"measurement": "ALOMY PRE percentage damage (five point scale)", "setting": "[1]", "value": "5 (5=80-100%)"}, {"measurement": "AVEFA PRE percentage damage (five point scale)", "setting": "Avena fatua (AVEFA) [2]", "value": "5 (5=80-100%)"}, {"measurement": "ECHCG PRE percentage damage (five point scale)", "setting": "[3]", "value": "5 (5=80-100%)"}, {"measurement": "LOLPE PRE percentage damage (five point scale)", "setting": "Lolium perenne (LOLPE) [4]", "value": "5 (5=80-100%)"}, {"measurement": "SETFA PRE percentage damage (five point scale)", "setting": "Setaria faberi (SETFA) [5]", "value": "5 (5=80-100%)"}, {"measurement": "SETFA POST percentage damage (five point scale)", "setting": "Setaria faberi (SETFA) [6]", "value": "5 (5=80-100%)"}, {"measurement": "ALOMY POST percentage damage (five point scale)", "setting": "[7]", "value": "5 (5=80-100%)"}, {"measurement": "AVEFA POST percentage damage (five point scale)", "setting": "Avena fatua (AVEFA) [8]", "value": "5 (5=80-100%)"}, {"measurement": "ECHCG POST percentage damage (five point scale)", "setting": "[9]", "value": "5 (5=80-100%)"}, {"measurement": "LOLPE POST percentage damage (five point scale)", "setting": "Lolium perenne (LOLPE) [10]", "value": "5 (5=80-100%)"}]}, {"smiles": "CC#Cc1cc(C)c(C2=C(OC(=O)c3ccccc3F)CC3(CCN(C(=O)c4ccccc4F)CC3)CC2=O)c(C)c1", "note": "[Compound P20]", "values": [{"measurement": "ALOMY PRE percentage damage (five point scale)", "setting": "[1]", "value": "5 (5=80-100%)"}, {"measurement": "AVEFA PRE percentage damage (five point scale)", "setting": "Avena fatua (AVEFA) [2]", "value": "3 (3=40-59%)"}, {"measurement": "ECHCG PRE percentage damage (five point scale)", "setting": "[3]", "value": "5 (5=80-100%)"}, {"measurement": "LOLPE PRE percentage damage (five point scale)", "setting": "Lolium perenne (LOLPE) [4]", "value": "5 (5=80-100%)"}, {"measurement": "SETFA PRE percentage damage (five point scale)", "setting": "Setaria faberi (SETFA) [5]", "value": "5 (5=80-100%)"}, {"measurement": "SETFA POST percentage damage (five point scale)", "setting": "Setaria faberi (SETFA) [6]", "value": "5 (5=80-100%)"}, {"measurement": "ALOMY POST percentage damage (five point scale)", "setting": "[7]", "value": "5 (5=80-100%)"}, {"measurement": "AVEFA POST percentage damage (five point scale)", "setting": "Avena fatua (AVEFA) [8]", "value": "5 (5=80-100%)"}, {"measurement": "ECHCG POST percentage damage (five point scale)", "setting": "[9]", "value": "5 (5=80-100%)"}, {"measurement": "LOLPE POST percentage damage (five point scale)", "setting": "Lolium perenne (LOLPE) [10]", "value": "5 (5=80-100%)"}]}, {"smiles": "CC#Cc1cc(C)c(C2=C(OC(=O)OC)CC3(CCN(C(=O)OC(C)(C)C)CC3)CC2=O)c(C)c1", "note": "[Compound P21]", "values": [{"measurement": "ALOMY PRE percentage damage (five point scale)", "setting": "[1]", "value": "5 (5=80-100%)"}, {"measurement": "AVEFA PRE percentage damage (five point scale)", "setting": "Avena fatua (AVEFA) [2]", "value": "4 (4=60-79%)"}, {"measurement": "ECHCG PRE percentage damage (five point scale)", "setting": "[3]", "value": "5 (5=80-100%)"}, {"measurement": "LOLPE PRE percentage damage (five point scale)", "setting": "Lolium perenne (LOLPE) [4]", "value": "5 (5=80-100%)"}, {"measurement": "SETFA PRE percentage damage (five point scale)", "setting": "Setaria faberi (SETFA) [5]", "value": "5 (5=80-100%)"}, {"measurement": "SETFA POST percentage damage (five point scale)", "setting": "Setaria faberi (SETFA) [6]", "value": "5 (5=80-100%)"}, {"measurement": "ALOMY POST percentage damage (five point scale)", "setting": "[7]", "value": "5 (5=80-100%)"}, {"measurement": "AVEFA POST percentage damage (five point scale)", "setting": "Avena fatua (AVEFA) [8]", "value": "5 (5=80-100%)"}, {"measurement": "ECHCG POST percentage damage (five point scale)", "setting": "[9]", "value": "5 (5=80-100%)"}, {"measurement": "LOLPE POST percentage damage (five point scale)", "setting": "Lolium perenne (LOLPE) [10]", "value": "5 (5=80-100%)"}]}]}
